Experiment [1] addresses Glycogen synthase kinase-3 beta (Homo sapiens, UniProt P49841). Briefly: TR-FRET Assay. The gist of the method:
(§1)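 Enzyme and test compound were first incubated together for 30 minutes in assay buffer. The kinase reaction followed and was stopped with EDTA. The pSer641 signal was read by time-resolved FRET.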
On the technique in general: TR-FRET usually uses a lanthanide donor and a delayed reading to cut background.

Experiment [2] addresses Glycogen synthase kinase-3 alpha (Homo sapiens, UniProt P49840). Kind of experiment: TR-FRET Assay. The essentials: as §1

Where “and” joins values, the source holds several entries; their conditions need not be identical. Identical values can stand only once. Where only a bound is given, the exact number is not on record here.

Chain of Glycogen synthase kinase-3 beta (P49841 whole entry): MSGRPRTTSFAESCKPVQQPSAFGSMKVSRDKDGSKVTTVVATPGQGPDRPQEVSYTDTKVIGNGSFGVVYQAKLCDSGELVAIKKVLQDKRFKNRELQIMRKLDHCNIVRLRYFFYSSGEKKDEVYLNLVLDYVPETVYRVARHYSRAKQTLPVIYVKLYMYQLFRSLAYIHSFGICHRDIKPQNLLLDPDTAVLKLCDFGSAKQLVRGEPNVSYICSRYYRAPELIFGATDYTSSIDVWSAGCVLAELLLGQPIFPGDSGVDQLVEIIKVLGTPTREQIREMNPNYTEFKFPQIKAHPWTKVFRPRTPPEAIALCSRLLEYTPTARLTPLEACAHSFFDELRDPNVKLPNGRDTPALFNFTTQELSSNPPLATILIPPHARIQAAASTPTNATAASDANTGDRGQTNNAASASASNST
Chain of Glycogen synthase kinase-3 alpha (P49840 whole entry): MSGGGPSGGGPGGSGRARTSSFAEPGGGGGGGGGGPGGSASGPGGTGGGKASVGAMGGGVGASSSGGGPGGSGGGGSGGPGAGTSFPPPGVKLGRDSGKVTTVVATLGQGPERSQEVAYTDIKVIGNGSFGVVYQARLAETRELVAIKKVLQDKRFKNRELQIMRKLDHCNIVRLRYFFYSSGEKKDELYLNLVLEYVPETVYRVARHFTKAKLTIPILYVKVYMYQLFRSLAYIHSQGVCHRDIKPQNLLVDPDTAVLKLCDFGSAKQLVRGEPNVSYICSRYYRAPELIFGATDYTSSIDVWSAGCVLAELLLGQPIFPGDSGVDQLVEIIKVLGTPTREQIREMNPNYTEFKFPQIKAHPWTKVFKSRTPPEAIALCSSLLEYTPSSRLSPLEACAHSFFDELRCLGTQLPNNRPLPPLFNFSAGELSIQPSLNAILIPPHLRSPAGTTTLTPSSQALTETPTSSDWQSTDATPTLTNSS

What is called IC50 is the concentration needed to halve the response being measured. Read a low IC50 as greater potency. For `COc1ccc(S(=O)(=O)N2CCC3(CC2)C2=C(N=NC2)NC2=C3C(=O)CC(C)(C)C2)c(F)c1` [US20250313563, Compound 947255], the IC50 in experiment [1] was < 0.1 µM and 0.1 to 1 µM; in experiment [2] it was less than 0.1 µM.
On to `CC[C@]1(c2cccc(Br)c2)C2=CN=NC2NC2=C1C(=O)[C@@H](F)C(C)(C)C2` (stereo not given in full) [US20250313563, Compound 835315], for which the IC50 lay within 1 to 5 µM in experiment [1] and 0.1 to 1 µM in experiment [2].
Taken in the same sequence, the figures for `CCC1(c2cccc(S(=O)(=O)C3CC3)c2)C2=C(CC(C)(C)NC2=O)NC2=C1C(C(F)(F)F)N=N2` (stereo not given) [US20250313563, Compound 947859] were less than 0.1 µM and less than 0.1 µM.
With `CCC1(c2ccc(C)cc2)C2=C(N=NC2)NC2=C1C(=O)CC(C)(C)C2` (stereo not given) [US20250313563, Compound 785739], the figures for the concentration for half-maximal inhibition (IC50) in experiment [1] and in experiment [2] were greater than 5 µM and 0.1 to 1 µM, respectively.
Taken in the same sequence, the figures for `CO[C@H]1CC[C@@]2(CC1)C1=C(N=NC1)NC1=C2C(=O)CC(C)(C)C1` [US20250313563, Compound 884119] were 0.1 to 1 µM and less than 0.1 µM.
As for `CC1(C)CC(=O)C2=C(C1)NC1=C(CN=N1)C21CN(C2COC2)C1` [US20250313563, Compound 912076], the IC50 in experiment [1] lay in the range of 1 to 5 µM; in experiment [2] it was 0.1 to 1 µM.
For `CC[C@]1(c2ccccc2)C2=CN=NC2NC2=C1C(=O)[C@@H](F)C(C)(C)C2` (stereo not given in full) [US20250313563, Compound 826769], the half-inhibitory concentration (IC50) in experiment [1] and in experiment [2] was greater than 5 µM each time.
With `CC[C@]1(c2cccc(-c3cnn4c3CCCC4)c2)C2=CN=NC2NC2=C1C(=O)CC(C)(C)C2` (stereo not given in full) [US20250313563, Compound 945543], the concentration for half-maximal inhibition (IC50) in experiment [1] fell in the range of 1 to 5 µM; in experiment [2] it was 0.1 to 1 µM.
With `CCC1(CCc2ccccc2)C2=C(N=NC2)NC2=C1C(=O)CC(C)(C)C2` (stereo not given) [US20250313563, Compound 819563], the IC50 was greater than 5 µM in experiment [1] and 1 to 5 µM in experiment [2].
The corresponding values for `CC[C@]1(c2cccc(C(F)(F)F)c2)C2=C(N=NC2)NC2=C1C(=O)C(C)(C)C2` [US20250313563, Compound 950272] are 0.1 to 1 µM and less than 0.1 µM.
As for `CC1(C)CC(=O)C2=C(C1)NC1=C(CN=N1)[C@@]21CCN(S(=O)(=O)CC2CC2)C1` [US20250313563, Compound 951724], the concentration for half-maximal inhibition (IC50) in experiment [1] and in experiment [2] was less than 0.1 µM each time.
As for `CC[C@@]1(c2cccc(-c3ncnn3C)c2)C2=CN=NC2NC2=C1C(=O)CC(C)(C)C2` (stereo not given in full) [US20250313563, Compound 945482], the concentration for half-maximal inhibition (IC50) in experiment [1] is greater than 5 µM; in experiment [2], 1 to 5 µM and > 5 µM.
Consider `CCC1(c2cccc(S(=O)(=O)C3CCCCC3)c2)C2=CN=NC2NC2=C1C(=O)CC(C)(C)C2` (stereo not given) [US20250313563, Compound 918273], for which the IC50 in experiment [1] and in experiment [2] was less than 0.1 µM in each case.
In the case of `CC[C@@]1(c2cccc(C(F)(F)F)c2)C2=CN=NC2NC2=C1C(=O)N[C@H](C(C)(C)C)C2` (stereo not given in full) [US20250313563, Compound 945922], the results for the IC50 in experiment [1] and in experiment [2] were 0.1 to 1 µM and less than 0.1 µM, respectively.
Consider `CC1(C)CC(=O)C2=C(C1)NC1=C(CN=N1)C21CN(CC2CCOCC2)C1` [US20250313563, Compound 943545], for which the IC50 in experiment [1] and in experiment [2] was greater than 5 µM throughout.
For `CC[C@@]1(c2cccc(-c3ccncc3C)c2)C2=C(CC(C)(C)NC2=O)NC2N=NC(C)=C21` (stereo not given in full) [US20250313563, Compound 947414], the half-inhibitory concentration (IC50) in experiment [1] was < 0.1 µM and 1 to 5 µM; in experiment [2] it was < 0.1 µM and 0.1 to 1 µM.
Regarding `CC1(C)CC(=O)C2=C(C1)NC1N=NC=C1[C@@]21CO[C@@H](c2ccccc2)C1` (stereo not given in full) [US20250313563, Compound 946073], the IC50 in experiment [1] is 0.1 to 1 µM; in experiment [2] it was less than 0.1 µM.
As to `CC[C@@]1(c2cccc(-c3ccnc(C)c3C)c2)C2=CN=NC2NC2=C1C(=O)NC(C)(C)C2` (stereo not given in full) [US20250313563, Compound 948184], the IC50 in experiment [1] was 0.1 to 1 µM and 1 to 5 µM; in experiment [2], < 0.1 µM and 0.1 to 1 µM.
As for `CC[C@@]1(c2cccc(-c3ccnc(C)c3F)c2)C2=CN=NC2NC2=C1C(=O)CC(C)(C)C2` (stereo not given in full) [US20250313563, Compound 927347], the half-maximal inhibitory concentration (IC50) in experiment [1] was < 0.1 µM and 1 to 5 µM; in experiment [2], < 0.1 µM and 0.1 to 1 µM.
As for `CC[C@]1(c2cccc(-c3cnn(C(F)F)c3)c2)C2=CN=NC2NC2=C1C(=O)NC(C)(C)C2` (stereo not given in full) [US20250313563, Compound 948816], the IC50 in experiment [1] and in experiment [2] was greater than 5 µM throughout.
For the compound `CCC1(c2cccc(S(=O)(=O)C3CC3)c2)C2=CN=NC2NC2=C1C(=O)N(C)C(C)(C)C2` (stereo not given) [US20250313563, Compound 948303], the IC50 in experiment [1] and in experiment [2] was less than 0.1 µM in each case.
`CC1(C)CC(=O)C2=C(C1)NC1=C(CN=N1)C21COC2(CN(C(=O)C3CC(C)(C)C3)C2)C1` (stereo not given) [US20250313563, Compound 947282]: the IC50 in experiment [1] is 0.1 to 1 µM; in experiment [2], less than 0.1 µM.
In the case of `CCC1(c2cccc(N(C)C(=O)C3CCCCC3)c2)C2=CN=NC2NC2=C1C(=O)CC(C)(C)C2` (stereo not given) [US20250313563, Compound 912065], the IC50 in experiment [1] was 0.1 to 1 µM; in experiment [2], less than 0.1 µM.
The corresponding values for `O=C1C[C@H](C(F)(F)F)CC2=C1C1(CCOCC1)C1=C(N=NC1)N2` [US20250313563, Compound 901477] are 1 to 5 µM and 0.1 to 1 µM.
Taken in the same sequence, the figures for `CC[C@@]1(c2cccc(C(F)(F)F)c2)C2=CN=NC2NC2=C1C(=O)N[C@H](C)C2` (stereo not given in full) [US20250313563, Compound 912098] were 0.1 to 1 µM and less than 0.1 µM.
Taken in the same sequence, the figures for `CC1(C)CC(=O)C2=C(C1)NC1=C(CN=N1)C2(C)c1cccc(-c2ccccc2)c1` (stereo not given) [US20250313563, Compound 789513] were 0.1 to 1 µM and 0.1 to 1 µM.
In the case of `CC1OCCC12C1=C(N=NC1)NC1=C2C(=O)CC(C)(C)C1` (stereo not given) [US20250313563, Compound 911958], the 50% inhibitory concentration (IC50) in experiment [1] and in experiment [2] was greater than 5 µM each time.
Regarding `O=C1CC2(CCOC2)CC2=C1C1(CCOCC1)C1=C(N=NC1)N2` (stereo not given) [US20250313563, Compound 889573], the IC50 is 0.1 to 1 µM in experiment [1] and less than 0.1 µM in experiment [2].
On to `CC1(C)CC(=O)C2=C(C1)NC1=C(CN=N1)C21CCCC1` [US20250313563, Compound 790666], for which the IC50 in experiment [1] and in experiment [2] was less than 0.1 µM in each case.
As to `CC[C@]1(c2cccc(C)c2)C2=CN=NC2NC2=C1C(=O)CC(C)(C)C2` (stereo not given in full) [US20250313563, Compound 789560], the concentration for half-maximal inhibition (IC50) was 0.1 to 1 µM in experiment [1]; < 0.1 µM and 1 to 5 µM in experiment [2].
`CC[C@]1(c2cccc(-c3ccnn3-c3ccc(F)cc3)c2)C2=CN=NC2NC2=C1C(=O)NC(C)(C)C2` (stereo not given in full) [US20250313563, Compound 949396]: the IC50 in experiment [1] and in experiment [2] was greater than 5 µM throughout.
On to `CC[C@@]1(c2cccc(N(C)c3ccc(C(F)(F)F)nc3)c2)C2=CN=NC2NC2=C1C(=O)CC(C)(C)C2` (stereo not given in full) [US20250313563, Compound 945474], for which the concentration for half-maximal inhibition (IC50) in experiment [1] was 0.1 to 1 µM; in experiment [2], less than 0.1 µM.
Consider `CC1(C)CC(=O)C2=C(C1)NC1=C(CN=N1)C21CCN(c2ccncn2)CC1` [US20250313563, Compound 874529], for which the 50% inhibitory concentration (IC50) was 1 to 5 µM in experiment [1] and 0.1 to 1 µM in experiment [2].
Taken in the same sequence, the figures for `CC1(C)CC(=O)C2=C(C1)NC1N=NC=C1C21CCCN(C(=O)c2ccccc2)CC1` (stereo not given) [US20250313563, Compound 889577] were 1 to 5 µM and 1 to 5 µM.
Take `CCC1(c2cccc(C(F)(F)F)c2)C2=CN=NC2NC2=C1C(=O)NC(C)C2` (stereo not given) [US20250313563, Compound 911956]: the concentration for half-maximal inhibition (IC50) is 0.1 to 1 µM in experiment [1] and less than 0.1 µM in experiment [2].

For the origin of these results see BindingDB's records for patent US20250313563 (The Broad Institute, 2025).
